Ends that are not written are not given here.
B1: HAG3 (peptide)
peptide: H-AGWLADGSLRYPI-OH
notes: Synthetic peptide with free amino and carboxy termini; The residue range on HAG is not tied to this label
B2: HAG2 (peptide)
peptide: H-AGWLADRSVRYPI-OH
notes: as for B1

Key:
[1] = test system: PBMC from RA patients; assay: Proliferative responses of PBMC from RA patients ([3H]thymidine incorporation); format: cell-based, human; settings: peptide 50 μg/ml, mean of three or four measurements
[2] = target: T1, HLA-DR4 (DRB1*0401) molecules, affinity purified (human); assay: semi-quantitative competition with biotinylated IHA(307-319)F for purified HLA-DR; range taken from the table legend for grade ++
T1 construct: mature; Used at 0.05-5 uM in the assay

[3] = target: T1, HLA-DR4 (DRB1*0401) molecules, affinity …; assay: semi-quantitative competition with biotinylated IHA(307-319)F for purified HLA-DR; relative IC50 grade read by eye from ECL blot
[4] = target: T1, HLA-DR4 (DRB1*0401) molecules, affinity …; assay: semi-quantitative competition with biotinylated IHA(307-319)F for purified HLA-DR; range taken from the table legend for grade +

Row | Molecule | Proliferative response of PBMC, [3H]TdR incorporation ([1]; donor 191 (RA), background 320) [count per 5 min] | Proliferative response of PBMC, [3H]TdR incorporation ([1]; donor 209 (RA), background 405) [count per 5 min] | IC50 [2] [µM] | relative binding affinity IC50 (eIC50) [3] [µM] | also measured
1 | AGWLADGSLRYPI [HAG3] | 233 | 1094 | – | – | –
2 | AGWLADRSVRYPI [HAG2] | 1061 | 1115 | – | – | –
3 | AGWLSDGSVQYPI [HCLP1] | – | 1503 | – | – | Proliferative response of PBMC, [3H]TdR incorporation ([1]; donor 227 (RA), background 833): 1964 count per 5 min
4 | B1 | – | – | 1 to 10 | 1 to 10 | –
5 | AGWLSDGSVQYPI (also called HCIP1) [HCLP1] | – | – | – | 10 to 100 | IC50 [4]: 10 to 100 µM
6 | B2 | – | – | 1 to 10 | 1 to 10 | –

From patent US20020177554A1, “Novel peptides for use in treatment of T-cell mediated cartilage destruction in autoimmune diseases” (Akzo Nobel N.V., priority 1995, published 2002)
